# Measurements from US6649402B2, “Microfabricated microbial growth assay method and apparatus” (Wisconsin Alumni Research Foundation, priority 2001, dated 2003).
# Test system: E. coli K-12 MG 1655
# Experiment: microbial growth assay by impedance (capacitance and resistance) measurement in 30 μl wells
# Assay type: cell-based
# Conditions: 37° C.
# Experimental: As an example of the utilization of the apparatus 20 of FIGS. 1 and 2, a single colony of E. coli K-12 MG 1655 was used to inoculate five ml of Luria Broth (LB) which was grown overnight at 37° C. with constant aeration. A 1% inoculum was used to subculture in fresh LB medium and grew to OD600 of 0.5 (measured by a Beckman DU-20 spectrophotometer). 15 μl of cell culture was mixed with 15 μl of LB medium in samples with and without ampicillin (100 μg/ml), and aliquoted into the wells 22. In addition, an equal volume of LB medium (30 μl) with ampicillin was aliquoted into an additional well to function as a negative control.
# The switch/control unit 34 was used to switch the connection of the LCR meter 36 to the conductors 30 and 31 leading to the electrodes of the wells 22 in sequence. A 10 mV rms alternating current signal of varying frequency (between 75 kHz and 30 MHz) was used for electrical excitation and was applied between the electrodes 24 and 25. […] At each frequency, impedance (capacitance and resistance) was measured between the electrodes 24 and 25 for each of the four wells. […] The values of the impedance (assuming a parallel RC equivalent circuit model, resistance and capacitance, R and C) between the electrodes 24 and 25 at each of the cells was recorded periodically over about 16 hours under the control of the computer 41. […]
compound,measurement,setting,value
CC1(C)S[C@@H]2[C@H](NC(=O)[C@H](N)c3ccccc3)C(=O)N2[C@H]1C(=O)O [ampicillin],capacitance (and resistance) between the electrodes at a well containing bacteria over time,"ampicillin 100 μg/ml in LB medium, measured at 75 kHz and 400 kHz, about 16 hours, relative to control well without bacteria, without ampicillin capacitance increases exponentially",remains constant
same,time within which the antibacterial effect can be detected,"ampicillin 100 μg/ml, E. coli in LB medium, impedance readout",less than one hour
